Test results: US12134610B2, “Somatostatin subtype-2 receptor (SST2R) targeted therapeutics and uses thereof” (priority 2022, dated 2024)
Like-named read-outs stand apart in the source and are kept apart here. Starred links: 1 amine or outer side, 2 acyl side, 3 side chain; linkers in the order of their positions; H or OH if unused. Non-standard residues stand in square brackets, D forms with d. Residues, ends and D or L forms follow the SMILES beside them. *: point of attachment. PABC(3-O-βDGlc) = O=C(OCc1ccc(N[*:1])c(O[C@@H]2O[C@H](CO)[C@@H](O)[C@H](O)[C@H]2O)c1)[*:2]; X1 = Cc1cc(F)cc(-c2cnc(NCCNC(=O)CCOCCC(=O)*)c(-c3nc4ccc(Cl)cc4[nH]3)c2N2CCC(N)CC2)c1; Dolaproine = CO[C@@H]([C@@H]1CCCN1)[C@@H](C)C(=O)O; Dil = CC[C@H](C)[C@H](NC)[C@@H](CC(=O)O)OC; X2 = C[C@@H](N*)[C@@H](O)c1ccccc1; Cit = NC(=O)NCCC[C@H](N)C(=O)O; NMeV = CN[C@H](C(=O)O)C(C)C

How the values were obtained:
Format in all cases: cell-based
[1] = target: T1, human somatostatin receptor subtype 2 (Homo sapiens, UniProt P30874); test: Functional cAMP assay for SSTR2 agonists (HTRF) in CHO-K1 cells; conditions: CHO-K1 cells stably expressing human SST2, 20 min
T1 construct: expressed in transfected cells
T1 sequence (P30874 whole entry): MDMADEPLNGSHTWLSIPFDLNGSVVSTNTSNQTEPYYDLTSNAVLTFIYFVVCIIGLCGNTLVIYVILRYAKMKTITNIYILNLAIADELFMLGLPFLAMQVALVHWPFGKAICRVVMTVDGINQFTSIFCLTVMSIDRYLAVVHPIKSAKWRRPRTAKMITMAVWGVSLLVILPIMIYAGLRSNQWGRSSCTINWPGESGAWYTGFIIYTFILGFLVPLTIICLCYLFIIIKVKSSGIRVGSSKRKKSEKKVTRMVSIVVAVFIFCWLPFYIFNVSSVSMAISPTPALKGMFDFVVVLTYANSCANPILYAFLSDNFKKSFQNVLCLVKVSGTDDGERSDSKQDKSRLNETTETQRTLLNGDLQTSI
How it was run: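 Agonism scored as loss of NKH477 (1.6 μM)-driven cAMP, with IBMX present, after 20 min, 37° C. exposure of stably transfected CHO-K1 cells to compound dilutions (typically 0-10,000 nM). Lysates read by time-resolved FRET; cAMP interpolated from standard curve and EC50 derived.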

SST2 = target: T2, SST2 (Homo sapiens, UniProt P30874); test: PathHunter CHO-K1 SST2 internalization assay; conditions: PathHunter CHO-K1 SST2, 90 min
T2 construct: host or cells: PathHunter CHO-K1 SST2 cells
T2 sequence (P30874 whole entry): as above
How it was run: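 IC50 comes from four-parameter curves on background-corrected duplicates of Beta-Glo luminescence, read after 60 min at room temperature in the dark. Before that, CHO-K1 SST2 internalization cells (48 h post-seeding) received SMDC as eleven threefold dilutions, 10 uM highest final, for 90 min at 37 C.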

[2] = test system: NCI-H524 (ATCC) human small cell lung cancer cells
How it was run: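 CellTiter-Glo luminescence after a 2 h SMDC pulse (top dose 1 uM, 2-fold dilutions, 11 points), medium wash, then 70 h recovery. Cells were seeded at 5,000/well and dosed 24 h later. % inhibition vs control gave IC50 via four-parameter fit.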

| SMILES | EC50 ([1]; hSST2 cAMP Avg EC50 (nM)) [nM] | EC50 (SST2; Internalization EC50 (nM)) [nM] | EC50 ([2]; 2 h treatment, washout, additional 70 h, read-out: H524 EC50) [nM] | EC50 ([1]; read-out: hSST2 cAMP Avg EC50) [nM] | EC50 (SST2; read-out: Internalization EC50) [nM] | EC50 ([2]; 2 h) [nM] |
| --- | --- | --- | --- | --- | --- | --- |
| CC[C@@]1(O)C(=O)OCc2c1cc1n(c2=O)Cc2c-1nc1cc(F)c(C)c3c1c2[C@@H](NC(=O)OCc1ccc(NC(=O)[C@H](CCCNC(N)=O)NC(=O)[C@@H](NC(=O)CCOCCC(=O)NCCNc2ncc(-c4cc(C)cc(F)c4)c(N4CCC(N)CC4)c2-c2nc4ccc(Cl)cc4[nH]2)C(C)C)c(O[C@@H]2O[C@H](C(=O)O)[C@@H](O)[C@H](O)[C@H]2O)c1)CC3 [Compound 126] | 0.29 | 3.4 | 100 | – | – | – |
| CC[C@H](C)[C@@H]([C@@H](CC(=O)N1CCC[C@H]1[C@H](OC)[C@@H](C)C(=O)N[C@H](C)[C@@H](O)c1ccccc1)OC)N(C)C(=O)[C@@H](NC(=O)[C@H](C(C)C)N(C)C(=O)OCc1ccc(NC(=O)[C@H](CCCNC(N)=O)NC(=O)[C@@H](NC(=O)CCOCCNCCNc2ncc(-c3cc(C)cc(F)c3)c(N3CCC(N)CC3)c2-c2nc3ccc(Cl)cc3[nH]2)C(C)C)c(O[C@@H]2O[C@H](C(=O)O)[C@@H](O)[C@H](O)[C@H]2O)c1)C(C)C [Compound 128] | – | – | – | 0.18 | 8.7 | 31 |
| CC[C@H](C)[C@@H]([C@@H](CC(=O)N1CCC[C@H]1[C@H](OC)[C@@H](C)C(=O)N[C@H](C)[C@@H](O)c1ccccc1)OC)N(C)C(=O)[C@@H](NC(=O)[C@H](C(C)C)N(C)C(=O)OCc1ccc(NC(=O)[C@H](CCCNC(N)=O)NC(=O)[C@@H](NC(=O)CCOCCOCCOCCOCCNCCNc2ncc(-c3cc(C)cc(F)c3)c(N3CCC(N)CC3)c2-c2nc3ccc(Cl)cc3[nH]2)C(C)C)c(O[C@@H]2O[C@H](C(=O)O)[C@@H](O)[C@H](O)[C@H]2O)c1)C(C)C [Compound 129] | – | – | – | 0.34 | 21 | 290 |
| CC[C@H](C)[C@@H]([C@@H](CC(=O)N1CCC[C@H]1[C@H](OC)[C@@H](C)C(=O)N[C@H](C)[C@@H](O)c1ccccc1)OC)N(C)C(=O)[C@@H](NC(=O)[C@H](C(C)C)N(C)C(=O)OCc1ccc(NC(=O)[C@H](C)NC(=O)[C@@H](NC(=O)CCOCCNCCNc2ncc(-c3cc(C)cc(F)c3)c(N3CCC(N)CC3)c2-c2nc3ccc(Cl)cc3[nH]2)C(C)C)c(O[C@@H]2O[C@H](C(=O)O)[C@@H](O)[C@H](O)[C@H]2O)c1)C(C)C [Compound 130] | – | – | – | 0.29 | 25 | 140 |
| CC[C@H](C)[C@@H]([C@@H](CC(=O)N1CCC[C@H]1[C@H](OC)[C@@H](C)C(=O)N[C@H](C)[C@@H](O)c1ccccc1)OC)N(C)C(=O)[C@@H](NC(=O)[C@H](C(C)C)N(C)C(=O)OCc1ccc(NC(=O)[C@H](C)NC(=O)[C@@H](NC(=O)CCOCCC(=O)NCCNc2ncc(-c3cc(C)cc(F)c3)c(N3CCC(N)CC3)c2-c2nc3ccc(Cl)cc3[nH]2)C(C)C)c(O[C@@H]2O[C@H](CO)[C@@H](O)[C@H](O)[C@H]2O)c1)C(C)C [Compound 131] | – | – | – | 0.13 | 5.2 | 4 |
| CC[C@H](C)[C@@H]([C@@H](CC(=O)N1CCC[C@H]1[C@H](OC)[C@@H](C)C(=O)N[C@H](C)[C@@H](O)c1ccccc1)OC)N(C)C(=O)[C@@H](NC(=O)[C@H](C(C)C)N(C)C(=O)OCc1ccc(NC(=O)[C@H](CCCNC(N)=O)NC(=O)[C@@H](NC(=O)CCOCCC(=O)NCCNc2ncc(-c3cc(C)cc(F)c3)c(N3CCC(N)CC3)c2-c2nc3ccc(Cl)cc3[nH]2)C(C)C)c(O[C@@H]2O[C@H](C(=O)O)[C@@H](O)[C@H](O)[C@H]2O)c1)C(C)C [Compound 132] | – | – | – | 0.2 | 5.7 | 22 |
| CC[C@H](C)[C@@H]([C@@H](CC(=O)N1CCC[C@H]1[C@H](OC)[C@@H](C)C(=O)N[C@H](C)[C@@H](O)c1ccccc1)OC)N(C)C(=O)[C@@H](NC(=O)[C@H](C(C)C)N(C)C(=O)OCc1ccc(NC(=O)[C@H](CCCNC(N)=O)NC(=O)[C@@H](NC(=O)CCCCC(=O)NCCNc2ncc(-c3cc(C)cc(F)c3)c(N3CCC(N)CC3)c2-c2nc3ccc(Cl)cc3[nH]2)C(C)C)c(O[C@@H]2O[C@H](C(=O)O)[C@@H](O)[C@H](O)[C@H]2O)c1)C(C)C [Compound 133] | – | – | – | 0.11 | 6 | 34 |
| CC[C@H](C)[C@@H]([C@@H](CC(=O)N1CCC[C@H]1[C@H](OC)[C@@H](C)C(=O)N[C@H](C)[C@@H](O)c1ccccc1)OC)N(C)C(=O)[C@@H](NC(=O)[C@H](C(C)C)N(C)C(=O)OCc1ccc(NC(=O)[C@H](CCCNC(N)=O)NC(=O)[C@@H](NC(=O)CCOCCC(=O)NCCNc2ncc(-c3cc(C)cc(F)c3)c(N3CCC(N)CC3)c2-c2nc3ccc(Cl)cc3[nH]2)C(C)C)c(O[C@@H]2O[C@H](CO)[C@@H](O)[C@H](O)[C@H]2O)c1)C(C)C [Compound 134] | – | – | – | 0.18 | 4.6 | 3.8 |
| CC[C@H](C)[C@@H]([C@@H](CC(=O)N1CCC[C@H]1[C@H](OC)[C@@H](C)C(=O)N[C@H](C)[C@@H](O)c1ccccc1)OC)N(C)C(=O)[C@@H](NC(=O)[C@H](C(C)C)N(C)C(=O)OCc1ccc(NC(=O)[C@H](CCCNC(N)=O)NC(=O)[C@@H](NC(=O)[C@H](CCC(=O)O)NC(=O)CCOCCC(=O)NCCNc2ncc(-c3cc(C)cc(F)c3)c(N3CCC(N)CC3)c2-c2nc3ccc(Cl)cc3[nH]2)C(C)C)c(O[C@@H]2O[C@H](CO)[C@@H](O)[C@H](O)[C@H]2O)c1)C(C)C [Compound 135] (X1-EV[Cit][PABC(3-O-βDGlc)][NMeV]V[Dil][Dolaproine]-X2) | – | – | – | 0.15 | 2.8 | 38 |
| CC[C@H](C)[C@@H]([C@@H](CC(=O)N1CCC[C@H]1[C@H](OC)[C@@H](C)C(=O)N[C@H](C)[C@@H](O)c1ccccc1)OC)N(C)C(=O)[C@@H](NC(=O)[C@H](C(C)C)N(C)C(=O)OCc1ccc(NC(=O)[C@H](CCCNC(N)=O)NC(=O)[C@@H](NC(=O)[C@H](CCC(N)=O)NC(=O)CCOCCC(=O)NCCNc2ncc(-c3cc(C)cc(F)c3)c(N3CCC(N)CC3)c2-c2nc3ccc(Cl)cc3[nH]2)C(C)C)c(O[C@@H]2O[C@H](CO)[C@@H](O)[C@H](O)[C@H]2O)c1)C(C)C [Compound 136] (X1-QV[Cit][PABC(3-O-βDGlc)][NMeV]V[Dil][Dolaproine]-X2) | – | – | – | 0.23 | 6.7 | 5.8 |
| CC[C@H](C)[C@@H]([C@@H](CC(=O)N1CCC[C@H]1[C@H](OC)[C@@H](C)C(=O)N[C@H](C)[C@@H](O)c1ccccc1)OC)N(C)C(=O)[C@@H](NC(=O)[C@H](C(C)C)N(C)C(=O)OCc1ccc(NC(=O)[C@H](CCCNC(N)=O)NC(=O)[C@@H](NC(=O)CCOCCOCCC(=O)NCCNc2ncc(-c3cc(C)cc(F)c3)c(N3CCC(N)CC3)c2-c2nc3ccc(Cl)cc3[nH]2)C(C)C)c(O[C@@H]2O[C@H](C(=O)O)[C@@H](O)[C@H](O)[C@H]2O)c1)C(C)C [Compound 137] | – | – | – | 0.51 | 4.6 | 6.7 |
| CC[C@H](C)[C@@H]([C@@H](CC(=O)N1CCC[C@H]1[C@H](OC)[C@@H](C)C(=O)N[C@H](C)[C@@H](O)c1ccccc1)OC)N(C)C(=O)[C@@H](NC(=O)[C@H](C(C)C)N(C)C(=O)OCc1ccc(NC(=O)[C@H](CCCNC(N)=O)NC(=O)[C@@H](NC(=O)CCOCCOCCOCCC(=O)NCCNc2ncc(-c3cc(C)cc(F)c3)c(N3CCC(N)CC3)c2-c2nc3ccc(Cl)cc3[nH]2)C(C)C)c(O[C@@H]2O[C@H](C(=O)O)[C@@H](O)[C@H](O)[C@H]2O)c1)C(C)C [Compound 138] | – | – | – | 0.16 | 5.2 | 12 |
